Measurements published in patent US5977133A, “Pyridone antibiotic with improved safety profile” (priority 1998, dated 1999).
Structures can show the parent of a compound that is named as a salt. Where two headings read alike, the source gives them in different places.

What was measured:
Format in all cases: cell-based
S. aureus (CiproS) = experiment: In vitro MIC, agar dilution; conditions: Staphylococcus aureus
M. avium = experiment: In vitro MIC, agar dilution; conditions: Mycobacterium avium
P. mirabilis = experiment: In vitro MIC, agar dilution; conditions: Proteus mirabilis
Providencia spp. = experiment: In vitro MIC, agar dilution
S. aureus (CiproR) = experiment: In vitro MIC, agar dilution; conditions: Staphylococcus aureus
S. pyogenes = experiment: In vitro MIC, agar dilution; conditions: Streptococcus pyogenes
N. gonorrhoeae = experiment: In vitro MIC, agar dilution; conditions: Neisseria gonorrhoeae
E. faecium (VanS) = experiment: In vitro MIC, agar dilution; conditions: Enterococcus faecium
C. perfringens = experiment: microbe, parasite or virus in culture; conditions: Clostridium perfringens
E. faecium (CiproR) = experiment: In vitro MIC, agar dilution; conditions: Enterococcus faecium; E. faecium (CiproR), 2 isolates; read-out: MIC Range
Klebsiella spp. = experiment: In vitro MIC, agar dilution
Enterobacter spp. = experiment: In vitro MIC, agar dilution
Salmonella spp. = experiment: In vitro MIC, agar dilution; conditions: 23 isolates
Experimental: (§1) Each plate was inoculated with 1:100 (or 1:10 for slow-growing strains, primarily Micrococcus and Streptococcus) dilutions of up to 32 different microorganisms, using a Steers replicator block calibrated to deliver approximately 10^4 colony forming units (CFU's). The inoculated plates were incubated at from about 35° C. to about 37 ° C. for approximately 20-24 hours. In addition, a control plate using BHI agar containing no test compound was prepared and incubated at the beginning and at the end of each test. The quinolone antibacterial ciprofloxacin was used as a control ("Cntl").
(§2) The numbers below the microorganism species indicate the nunbers of isolates tested. […] The MIC is defined as the lowest concentration of test compound yielding no growth (a slight haze or sparsely isolated colonies at the inoculum spot) as compared to the growth control containing no test compound.

E. coli = experiment: In vitro MIC, agar dilution; conditions: Escherichia coli, 25 isolates
Experimental: as §1, §2

E. faecium (CiproS) = experiment: In vitro MIC, agar dilution; conditions: Enterococcus faecium
H. pylori = experiment: In vitro MIC, agar dilution; conditions: Helicobacter pylori
Enterococcus spp. (VanR) = experiment: In vitro MIC, agar dilution; conditions: Enterococcus spp. (VanR), 21 isolates
Shigella spp. = experiment: microbe, parasite or virus in culture; conditions: read-out: MIC Range
E. faecalis (VanS) = experiment: In vitro MIC, agar dilution; conditions: Enterococcus faecalis
P. aeruginosa (CiproR) = experiment: In vitro MIC, agar dilution
C. difficile = experiment: In vitro MIC, agar dilution; conditions: C. difficile
Legionella spp. = experiment: microbe, parasite or virus in culture; conditions: Legionella
S. epidermidis (CiproS) = experiment: In vitro MIC, agar dilution; conditions: Staphylococcus epidermidis
M. catarrhalis = experiment: In vitro MIC, agar dilution; conditions: Moraxella catarrhalis
S. pneumoniae (PenR) = experiment: In vitro MIC, agar dilution; conditions: Streptococcus pneumoniae
M. pneumoniae = experiment: In vitro MIC, agar dilution; conditions: Mycoplasmoides pneumoniae; M. pneumoniae, 7 isolates; read-out: MIC Range
P. aeruginosa (CiproS) = experiment: In vitro MIC, agar dilution; conditions: Pseudomonas aeruginosa, P. aeruginosa (CiproS), 24 isolates
H. influenzae = experiment: In vitro MIC, agar dilution; conditions: Haemophilus influenzae, H. influenzae, 18 isolates

CN[C@@H]1CN(c2c(F)cn3c(=O)c(C(=O)O)cc(C4CC4)c3c2C)CC12CC2 [Example 1, 1-cyclopropyl-8-(7(S)-N-methylamino-5-azaspiro[2.4]heptyl)-7-fluoro-9-methyl-4-oxo-4H-guinolizine-3-carboxylic acid hydrochloride]
MIC90 (S. aureus (CiproS)): 0.03 µg/mL
MIC50 (S. aureus (CiproS); S. aureus (CiproS), 21 isolates, read-out: MIC50): 0.015 µg/mL
MIC (S. aureus (CiproS); S. aureus (CiproS), 21 isolates, read-out: MIC Range): 0.015 to 0.03 µg/mL
MIC (M. avium; read-out: MIC Range): 0.25 to 8 µg/mL
MIC50 (M. avium; M. avium, 20 isolates, read-out: MIC50): 1 µg/mL
MIC90 (M. avium; M. avium, 20 isolates, read-out: MIC90): 4 µg/mL
MIC90 (P. mirabilis): 0.12 µg/mL
MIC (P. mirabilis; read-out: MIC Range): 0.03 to 0.25 µg/mL
MIC50 (P. mirabilis; P. mirabilis, 20 isolates, read-out: MIC50): 0.12 µg/mL
MIC90 (Providencia spp.; Providencia): 0.25 µg/mL
MIC50 (Providencia spp.; Providencia spp., 28 isolates, read-out: MIC50): 0.06 µg/mL
MIC (Providencia spp.; Providencia spp., 28 isolates, read-out: MIC Range): 0.015 to 1 µg/mL
MIC90 (S. aureus (CiproR)): 0.5 µg/mL
MIC50 (S. aureus (CiproR); S. aureus (CiproR), 25 isolates, read-out: MIC50): 0.5 µg/mL
MIC (S. aureus (CiproR); S. aureus (CiproR), 25 isolates, read-out: MIC Range): 0.015 to 0.5 µg/mL
MIC50 (S. pyogenes): 0.03 µg/mL
MIC90 (S. pyogenes): 0.06 µg/mL
MIC (S. pyogenes; S. pyogenes, 21 isolates, read-out: MIC Range): 0.03 to 0.06 µg/mL
MIC90 (N. gonorrhoeae): 0.004 µg/mL
MIC50 (N. gonorrhoeae; N. gonorrhoeae, 12 isolates, read-out: MIC50): 0.002 µg/mL
MIC (N. gonorrhoeae; N. gonorrhoeae, 12 isolates, read-out: MIC Range): 0.001 to 0.015 µg/mL
MIC (E. faecium (VanS); read-out: MIC Range): 0.12 to 1 µg/mL
MIC50 (E. faecium (VanS); E. faecium (VanS), 11 isolates, read-out: MIC50): 0.5 µg/mL
MIC90 (E. faecium (VanS); E. faecium (VanS), 11 isolates, read-out: MIC90): 1 µg/mL
MIC50 (C. perfringens): 0.12 µg/mL
MIC90 (C. perfringens): 0.12 µg/mL
MIC90 (C. perfringens; C. perfringens, 13 isolates): 0.25 µg/mL
MIC (C. perfringens; read-out: MIC Range): 0.12 to 0.25 µg/mL
MIC (E. faecium (CiproR)): 0.5 to 4 µg/mL
MIC90 (Klebsiella spp.; Klebsiella): 0.03 µg/mL
MIC50 (Klebsiella spp.; Klebsiella spp., 29 isolates, read-out: MIC50): 0.015 µg/mL
MIC (Klebsiella spp.; Klebsiella spp., 29 isolates, read-out: MIC Range): 0.002 to 0.12 µg/mL
MIC90 (Enterobacter spp.; Enterobacter): 0.03 µg/mL
MIC50 (Enterobacter spp.; Enterobacter spp., 35 isolates, read-out: MIC50): 0.015 µg/mL
MIC (Enterobacter spp.; Enterobacter spp., 35 isolates, read-out: MIC Range): 0.008 to 0.12 µg/mL
MIC (Salmonella spp.): 0.004 to 0.12 µg/mL
MIC50 (Salmonella spp.; read-out: MIC50): 0.03 µg/mL
MIC90 (Salmonella spp.; read-out: MIC90): 0.03 µg/mL
MIC (E. coli): 0.004 to 0.015 µg/mL
MIC50 (E. coli; read-out: MIC50): 0.015 µg/mL
MIC90 (E. coli; read-out: MIC90): 0.015 µg/mL
MIC (E. faecium (CiproS); read-out: MIC Range): 0.25 to 1 µg/mL
MIC50 (E. faecium (CiproS); E. faecium (CiproS), 16 isolates, read-out: MIC50): 0.5 µg/mL
MIC90 (E. faecium (CiproS); E. faecium (CiproS), 16 isolates, read-out: MIC90): 1 µg/mL
MIC50 (H. pylori): 0.03 µg/mL
MIC90 (H. pylori): 0.03 µg/mL
MIC (H. pylori; H. pylori, 17 isolates, read-out: MIC Range): 0.008 to 0.03 µg/mL
MIC50 (Enterococcus spp. (VanR); read-out: MIC50): 0.5 µg/mL
MIC90 (Enterococcus spp. (VanR); read-out: MIC90): 1 µg/mL
MIC (Enterococcus spp. (VanR); read-out: MIC Range): 0.06 to 4 µg/mL
MIC (Shigella spp.): 0.002 to 0.15 µg/mL
MIC90 (E. faecalis (VanS)): 0.25 µg/mL
MIC (E. faecalis (VanS); read-out: MIC Range): 0.12 to 0.25 µg/mL
MIC50 (E. faecalis (VanS); E. faecalis (VanS), 17 isolates, read-out: MIC50): 0.12 µg/mL
MIC50 (P. aeruginosa (CiproR); Pseudomonas aeruginosa, P. aeruginosa (CiproR), 20 isolates, read-out: MIC50): 8 µg/mL
MIC90 (P. aeruginosa (CiproR); Pseudomonas aeruginosa, P. aeruginosa (CiproR), 20 isolates, read-out: MIC90): 16 µg/mL
MIC (P. aeruginosa (CiproR); Pseudomonas aeruginosa, P. aeruginosa (CiproR), 20 isolates, read-out: MIC Range): 4 to 32 µg/mL
MIC90 (P. aeruginosa (CiproR); ciprofloxacin resistant P. aeruginosa strains): 16 (g/mL
MIC90 (C. difficile; 10 isolates): 0.5 µg/mL
MIC50 (C. difficile; Clostridioides difficile, 10 isolates, read-out: MIC50): 0.5 µg/mL
MIC (C. difficile; Clostridioides difficile, 10 isolates, read-out: MIC Range): 0.5 µg/mL
MIC90 (C. difficile; Clostridioides difficile, read-out: MIC90): 0.5 µg/mL
MIC50 (Legionella spp.): 0.12 µg/mL
MIC90 (Legionella spp.): 0.25 µg/mL
MIC (Legionella spp.; read-out: MIC Range): 0.12 to 0.25 µg/mL
MIC90 (S. epidermidis (CiproS)): 0.03 µg/mL
MIC50 (S. epidermidis (CiproS); S. epidermidis (CiproS), 23 isolates, read-out: MIC50): 0.015 µg/mL
MIC (S. epidermidis (CiproS); S. epidermidis (CiproS), 23 isolates, read-out: MIC Range): 0.015 to 0.03 µg/mL
MIC90 (M. catarrhalis): 0.03 µg/mL
MIC50 (M. catarrhalis; M. catarrhalis, 18 isolates, read-out: MIC50): 0.015 µg/mL
MIC (M. catarrhalis; M. catarrhalis, 18 isolates, read-out: MIC Range): 0.008 to 0.03 µg/mL
MIC90 (S. pneumoniae (PenR)): 0.06 µg/mL
MIC50 (S. pneumoniae (PenR); S. pneumoniae (PenR), 25 isolates, read-out: MIC50): 0.06 µg/mL
MIC (S. pneumoniae (PenR); S. pneumoniae (PenR), 25 isolates, read-out: MIC Range): 0.03 to 0.06 µg/mL
MIC (M. pneumoniae): 0.015 to 0.03 µg/mL
MIC50 (P. aeruginosa (CiproS); read-out: MIC50): 0.5 µg/mL
MIC90 (P. aeruginosa (CiproS); read-out: MIC90): 2 µg/mL
MIC (P. aeruginosa (CiproS); read-out: MIC Range): 0.12 to 4 µg/mL
MIC50 (H. influenzae; read-out: MIC50): 0.004 µg/mL
MIC90 (H. influenzae; read-out: MIC90): 0.008 µg/mL
MIC (H. influenzae; read-out: MIC Range): 0.002 to 0.015 µg/mL
